Results taken from the NIST ThermoML archive (doi:10.1021/je301371p).

Experiment: xn = mol fraction of the nth substance listed
Details: 101 kPa, Liquid; for mass density: Vibrating tube method; for viscosity: Oscillating disk viscometry

NCCCCN [1,4-butanediamine] + O
Details | mass density, 298.15 K [kg/m3] | mass density, 313.15 K [kg/m3] | mass density, 333.15 K [kg/m3] | viscosity, 303.15 K [mPa·s] | viscosity, 313.15 K [mPa·s] | viscosity, 323.15 K [mPa·s] | viscosity, 333.15 K [mPa·s]
x1 = 0.01952 | 992.346 | 986.497 | 976.433 | 1.23 | 0.98 | 0.8 | 0.63
x1 = 0.04244 | 988.532 | 981.237 | 969.713 | 1.83 | 1.39 | 1.1 | 0.9
x1 = 0.06965 | 985.772 | 976.817 | 963.518 | 2.51 | 1.85 | 1.4 | 1.06
x1 = 0.1025 | 982.813 | 972.197 | 957.323 | 3.65 | 2.57 | 1.86 | 1.37
x1 = 0.1434 | 978.544 | 966.791 | 950.667 | 4.87 | 3.29 | 2.29 | 1.62

CCN(CC)CCO [(diethylamino)ethanol] + O
Details | mass density, 298.15 K [kg/m3] | mass density, 313.15 K [kg/m3] | mass density, 333.15 K [kg/m3] | viscosity, 298.15 K [mPa·s] | viscosity, 303.15 K [mPa·s] | viscosity, 313.15 K [mPa·s] | viscosity, 323.15 K [mPa·s] | viscosity, 333.15 K [mPa·s]
x1 = 0.02012 | 993.744 | 987.552 | 976.86 | 2.16 | 1.4 | 1.12 | 0.94 | 0.75
x1 = 0.04547 | 990.151 | 981.577 | 968.366 | 3.62 | 2.34 | 1.66 | 1.32 | 1.03
x1 = 0.07875 | 983.322 | 972.648 | 957.191 | – | 3.61 | 2.42 | 1.72 | 1.24
x1 = 0.1252 | 971.858 | 959.656 | 942.334 | 8 | 5.75 | 3.76 | 2.6 | 1.87
x1 = 0.1933 | 961.569 | 948.632 | 930.379 | 11.61 | 8.05 | 5.27 | 3.69 | 2.53

O [water] + CCN(CC)CCO
x2 = 0
Details | mass density [kg/m3] | viscosity [mPa·s]
298.15 K | – | 0.89
303.15 K | – | 0.8
313.15 K | – | 0.65
323.15 K | – | 0.55
333.15 K | 983.2 | 0.48

O [water] + NCCCCN
x2 = 0
Details | mass density [kg/m3] | viscosity [mPa·s]
298.15 K | – | 0.89
303.15 K | – | 0.8
313.15 K | – | 0.65
323.15 K | – | 0.55
333.15 K | 983.2 | 0.48
